Data reported in ChEMBL document CHEMBL1134042, “[Lys3]Didemnins as potential affinity ligands” (Bioorg Med Chem Lett, 2001).

Columns and labels:
[1] = Cell free protein biosynthesis inhibition activity was determined; format: functional, Homo sapiens
[2] = Antiproliferative activity as 50% growth inhibition of NCI-60 human tumor cells; format: functional
[3] = Total growth inhibition of NCI-60 human tumor cells by the compound was evaluated; format: functional
[4] = Cytotoxicity in NCI-60 human tumor cells; format: functional; conditions: read-out: LC50 (the source's name)

`CC[C@H](C)[C@H]1NC(=O)[C@@H](NC(=O)[C@@H](CC(C)C)N(C)C(=O)[C@@H]2CCCN2C(=O)C(C)O)[C@@H](C)OC(=O)[C@H](Cc2ccc(OC)cc2)N(C)C(=O)[C@@H]2CCCN2C(=O)[C@H](CCCCN)NC(=O)[C@@H](C)C(=O)[C@H](C(C)C)OC(=O)C[C@@H]1O` (some centres undefined) gave an IC50 [1] of 154 µM, a GI50 [2] of 6.4 µM and a TGI [3] of 22 µM. It also gave a CC50 [4] of 25 µM.
